Test results: article PMC9313110, “Modulating the Fibrillization of Parathyroid-Hormone (PTH) Peptides: Azo-Switches as Reversible and Catalytic Entities” (Biomedicines, 2022)
Converted amounts (≈) assume the structure as drawn. Starred links: 1 amine or outer side, 2 acyl side, 3 side chain; linkers in the order of their positions; H or OH if unused. Non-standard residues stand in square brackets, D forms with d. Residues, ends and D or L forms follow the SMILES beside them. X3 = O=C(c1cccc(N=Nc2ccc(CN[*:1])cc2)c1)[*:2]

How the values were obtained:
[1] = in the dark; ref [41],[42]; cited from earlier work
[2] = Maximum solubility in fibrillization buffer; assay type: physicochemical; conditions: 50 mM Na2HPO4 buffer (pH 7.4), UV-Vis absorption (ε = 49310 M-1cm-1 at 205 nm for PTH25-37, ε = 13000 M-1cm-1 at 327 nm for 3,4'-AMPB peptides)
Method: ThT-monitored fibrillization assays of artificial peptides and mixtures with PTH25–37 were investigated by fluorescence intensity measurements using thioflavin T (ThT) as fluorescent dye. Lyophilized peptides were dissolved in 50 mM Na2HPO4 buffer solution with a pH value of 7.4 in a concentration of 2 mg/mL and kept on ice for the next steps. The samples were centrifuged at 13,000× […] for 10 s and the concentrations were determined with a JASCO V-660 absorbance spectrometer (JASCO, Pfungstadt, Germany; PTH25–37 by absorbance at 205 nm and the molar extinction coefficient of 49,310 cm^−1M^−1; trans-AzoPTH25–37 by absorbance at 327 nm and the molar extinction coefficient of 13,000 cm^−1M^−1). Cis-AzoPTH25–37 was produced as described before. The solutions were centrifuged at 10,000 rpm for 1 h at 4 °C, the supernatant was transferred to another tube. The protein solutions were mixed in the desired ration and diluted with 50 mM Na2HPO4 buffer (pH 7.4) to obtain final concentrations of 0/100 μM PTH25–37, 50 μM ThT, and 0/10/20/50/100 μM AzoPTH25–37. For each sample, a total volume of 480 μL was prepared and 3 × 150 μL were transferred to a medium binding 96-well plate (Greiner Bio-One, Kremsmünster, Austria). The plate was sealed with a microplate cover. The fluorescence intensity was monitored at 37 °C using a BMG FLUOStar Omega multi-mode plate reader (BMG LABTECH, Ortenberg, Germany) using fluorescence excitation and emission wavelengths at 460 nm and 485 nm, respectively. One measurement cycle of 5 min consisted of double-orbital shaking for 150 s and incubating for 150 s.
2. Peptide Characterisation
Table S1: Primary sequence and solubility in 50 mM Na2PO4 buffer (pH 7.4) of peptides AzoPTH25-37 and SP1-
peptide primary sequencea solubility [μM]b
a Azo = 3,4’-AMPB; b maximum solubility was determined via UV-Vis absorption spectroscopy
2.2. HPLC- and MALDI-ToF-data
Figure S1: (A) HPLC-trace of AzoPTH25-37 (cis-isomer at 5.353, trans-isomer at 5.530). (B) MALDI-spectrum

[3] = assay type: physicochemical
Excerpt: We first studied the photophysical properties of the cis-trans-isomerization of AzoPTH25–37 (Figure 1b) by UV/Vis spectroscopy and HPLC analysis in pure water in order to minimize effects of a potential self-assembly and to quantify the generated amounts of the respective cis/trans-modified peptides before and after photoswitching. The UV/Vis spectra for the pure isomers (Figure S6) were separated from the spectra of trans-enriched AzoPTH25–37 in the thermodynamically stable state after synthesis and in the cis-enriched photostationary state (PSS, Figure 3) with Wolfram Mathematica 12.2. […] Both isomers display two isobestic points at 278 nm and 388 nm. They represent in the thermodynamically stable state a cis-trans ratio of 3:97. Under irradiation with UV light (340 nm), the cis-content could be increased of up to 82% in the cis-enriched PSS. Visible light (405 nm) yields 76% of the trans-isomer in the trans-enriched PSS via the back reaction. The difference of the trans-content between the trans-enriched PSS at 405 nm and the thermodynamically stable state arises from the overlapping of the n → π* transitions of both isomers at this wavelength. The rate of thermal cis-to-trans isomerization of AzoPTH25–37 follows first-order kinetics, and was determined by monitoring the increase of the π → π* absorption band at 327 nm (Figure S7) via time-dependent UV measurements.
2.3. […]

[4] = ThT-monitored fibrillization assay of the pure peptides; assay type: physicochemical; conditions: pure peptide 100 μM; 50 μM ThT; 50 mM Na2HPO4, pH 7.4; 37 °C; fluorescence ex 460 nm/em 485 nm; average of triplets
Method: ThT-monitored fibrillization assays of artificial peptides and mixtures with PTH25–37 were investigated by fluorescence intensity measurements using thioflavin T (ThT) as fluorescent dye. Lyophilized peptides were dissolved in 50 mM Na2HPO4 buffer solution with a pH value of 7.4 in a concentration of 2 mg/mL and kept on ice for the next steps. The samples were centrifuged at 13,000× […] for 10 s and the concentrations were determined with a JASCO V-660 absorbance spectrometer (JASCO, Pfungstadt, Germany; PTH25–37 by absorbance at 205 nm and the molar extinction coefficient of 49,310 cm^−1M^−1; trans-AzoPTH25–37 by absorbance at 327 nm and the molar extinction coefficient of 13,000 cm^−1M^−1). Cis-AzoPTH25–37 was produced as described before. […] The fluorescence intensity was monitored at 37 °C using a BMG FLUOStar Omega multi-mode plate reader (BMG LABTECH, Ortenberg, Germany) using fluorescence excitation and emission wavelengths at 460 nm and 485 nm, respectively. […]
In order to determine the kinetics of fibril formation of both modified AzoPTH25–37 isomers a thioflavin T (ThT)-monitored fibrillization assay was conducted and compared to PTH25–37. […] Causing a large red shift of fluorescence excitation of ThT, which in turn enables the selective excitation of amyloid fibril-bound ThT and therefore the in situ observation of fibril formation. […]

Compound	solubility (maximum solubility) [2]	also measured
NCc1ccc(N=Nc2cccc(C(=O)O)c2)cc1 [3,4′-AMPB, 3-{[(4-aminomethyl)phenyl]diazenyl}benzoic acid]	–	half-life time of thermal back-isomerization of the photoswitch [1]: more than 20 h
CC(C)C[C@H](NC(=O)[C@H](C)NC(=O)[C@@H](NC(=O)[C@H](Cc1ccccc1)NC(=O)[C@H](CC(N)=O)NC(=O)[C@H](Cc1c[nH]cn1)NC(=O)c1cccc(N=Nc2ccc(CNC(=O)[C@H](CC(=O)O)NC(=O)[C@H](CCC(N)=O)NC(=O)[C@H](CC(C)C)NC(=O)[C@H](CCCCN)NC(=O)[C@H](CCCCN)NC(=O)[C@@H](N)CCCNC(=N)N)cc2)c1)C(C)C)C(=O)O [AzoPTH25–37] (H-RKKLQD[X3]HNFVAL-OH)	240 µM (≈ 409 µg/mL)	solubility (maximum solubility) ([2]; listed as AzoPTH25-37): 250 µM (≈ 426 µg/mL); photostability in the dark [3]: more than 20 h
CC(C)C[C@H](NC(=O)[C@H](C)NC(=O)[C@@H](NC(=O)[C@H](Cc1ccccc1)NC(=O)[C@H](CC(N)=O)NC(=O)[C@H](Cc1c[nH]cn1)NC(=O)[C@@H](NC(=O)[C@H](CC(=O)O)NC(=O)[C@H](CCC(N)=O)NC(=O)[C@H](CC(C)C)NC(=O)[C@H](CCCCN)NC(=O)[C@H](CCCCN)NC(=O)[C@@H](N)CCCNC(=N)N)C(C)C)C(C)C)C(=O)O [PTH25–37] (H-RKKLQDVHNFVAL-OH)	> 1000 µM	tchar (time at which 50% of the maximum fluorescence was reached) [4]: 10.9 h; tlag (lag time, time before an increase in the fluorescence signal occurs) [4]: 7.2 h

More lines, main results first:

solubility (maximum solubility) [2]	Compound	also measured
60 µM (≈ 108 µg/mL)	CC(C)C[C@H](NC(=O)[C@H](C)NC(=O)[C@@H](NC(=O)[C@H](Cc1ccccc1)NC(=O)[C@H](CC(N)=O)NC(=O)[C@H](Cc1c[nH]cn1)NC(=O)[C@@H](NC(=O)c1cccc(N=Nc2ccc(CNC(=O)[C@H](CC(=O)O)NC(=O)[C@H](CCC(N)=O)NC(=O)[C@H](CC(C)C)NC(=O)[C@H](CCCCN)NC(=O)[C@H](CCCCN)NC(=O)[C@@H](N)CCCNC(=N)N)cc2)c1)C(C)C)C(C)C)C(=O)O [SP1] (H-RKKLQD[X3]VHNFVAL-OH)	–
55 µM (≈ 99.3 µg/mL)	CC(C)C[C@H](NC(=O)[C@H](C)NC(=O)[C@@H](NC(=O)[C@H](Cc1ccccc1)NC(=O)[C@H](CC(N)=O)NC(=O)[C@H](Cc1c[nH]cn1)NC(=O)c1cccc(N=Nc2ccc(CNC(=O)[C@@H](NC(=O)[C@H](CC(=O)O)NC(=O)[C@H](CCC(N)=O)NC(=O)[C@H](CC(C)C)NC(=O)[C@H](CCCCN)NC(=O)[C@H](CCCCN)NC(=O)[C@@H](N)CCCNC(=N)N)C(C)C)cc2)c1)C(C)C)C(=O)O [SP2] (H-RKKLQDV[X3]HNFVAL-OH)	–
35 µM (≈ 59.2 µg/mL)	CC(C)C[C@H](NC(=O)[C@H](C)NC(=O)[C@@H](NC(=O)[C@H](Cc1ccccc1)NC(=O)[C@H](CC(N)=O)NC(=O)[C@H](Cc1c[nH]cn1)NC(=O)[C@@H](NC(=O)c1cccc(N=Nc2ccc(CNC(=O)[C@H](CCC(N)=O)NC(=O)[C@H](CC(C)C)NC(=O)[C@H](CCCCN)NC(=O)[C@H](CCCCN)NC(=O)[C@@H](N)CCCNC(=N)N)cc2)c1)C(C)C)C(C)C)C(=O)O [SP3] (H-RKKLQ[X3]VHNFVAL-OH)	–
25 µM (≈ 39.8 µg/mL)	CC(C)C[C@H](NC(=O)[C@H](C)NC(=O)[C@@H](NC(=O)[C@H](Cc1ccccc1)NC(=O)[C@H](CC(N)=O)NC(=O)[C@H](Cc1c[nH]cn1)NC(=O)c1cccc(N=Nc2ccc(CNC(=O)[C@H](CCC(N)=O)NC(=O)[C@H](CC(C)C)NC(=O)[C@H](CCCCN)NC(=O)[C@H](CCCCN)NC(=O)[C@@H](N)CCCNC(=N)N)cc2)c1)C(C)C)C(=O)O [SP4] (H-RKKLQ[X3]HNFVAL-OH)	–
